Assay results published in patent publication US9422297B2, “Tricyclic compounds having cytostatic and/or cytotoxic activity and methods of use thereof” (Duquesne University of the Holy Ghost, priority 2007, dated 2016).

What was measured:
Type in all cases: cell-based
T-47D = experiment: NCI In-Vitro Testing, Breast Cancer
UACC-257 = experiment: NCI In-Vitro Testing, Melanoma
SW-620 = experiment: NCI In-Vitro Testing, Colon Cancer
SN12C = experiment: NCI In-Vitro Testing, Renal Cancer
MDA-MB-435 = experiment: NCI In-Vitro Testing, Breast Cancer
UACC-62 = experiment: NCI In-Vitro Testing, Melanoma

`Nc1nc2c(c(Nc3ccc(Cl)cc3)n1)-c1ccccc1C2` [AAG145-136] was tested, and the GI50 (T-47D) was 2.90E−6 Molar, the LC50 (T-47D) was >1.00E−4 Molar and the TGI (T-47D) was >1.00E−4 Molar. For the same molecule, the “Percent Growth” value (T-47D; Log10 Concentration −4.0 Molar) was 27%, the “Percent Growth” value (T-47D; Log10 Concentration −5.0 Molar) was 34% and the “Percent Growth” value (T-47D; Log10 Concentration −6.0 Molar) was 63%. The “Percent Growth” value (T-47D; Log10 Concentration −7.0 Molar) was 83%, the “Percent Growth” value (T-47D; Log10 Concentration −8.0 Molar) was 88% and the GI50 (UACC-257) was 6.45E−8 Molar. For the same molecule, the LC50 (UACC-257) was >1.00E−4 Molar, the TGI (UACC-257) was >1.00E−4 Molar and the “Percent Growth” value (UACC-257; Log10 Concentration −4.0 Molar) was 6%. For the same molecule, the “Percent Growth” value (UACC-257; Log10 Concentration −5.0 Molar) was 21%, the “Percent Growth” value (UACC-257; Log10 Concentration −6.0 Molar) was 33% and the “Percent Growth” value (UACC-257; Log10 Concentration −7.0 Molar) was 46%. For the same molecule, the “Percent Growth” value (UACC-257; Log10 Concentration −8.0 Molar) was 102%, the GI50 (SW-620) was 6.30E−8 Molar and the LC50 (SW-620) was >1.00E−4 Molar. For the same molecule, the TGI (SW-620) was >1.00E−4 Molar, the “Percent Growth” value (SW-620; Log10 Concentration −4.0 Molar) was 10% and the “Percent Growth” value (SW-620; Log10 Concentration −5.0 Molar) was 10%. The “Percent Growth” value (SW-620; Log10 Concentration −6.0 Molar) was 15%, the “Percent Growth” value (SW-620; Log10 Concentration −7.0 Molar) was 39% and the “Percent Growth” value (SW-620; Log10 Concentration −8.0 Molar) was 92%. For the same molecule, the GI50 (SN12C) was 1.89E−7 Molar, the LC50 (SN12C) was >1.00E−4 Molar and the TGI (SN12C) was >1.00E−4 Molar. For the same molecule, the “Percent Growth” value (SN12C; Log10 Concentration −4.0 Molar) was 9%, the “Percent Growth” value (SN12C; Log10 Concentration −5.0 Molar) was 25% and the “Percent Growth” value (SN12C; Log10 Concentration −6.0 Molar) was 37%. The “Percent Growth” value (SN12C; Log10 Concentration −7.0 Molar) was 55%, the “Percent Growth” value (SN12C; Log10 Concentration −8.0 Molar) was 102% and the GI50 (MDA-MB-435) was 5.54E−7 Molar. For the same molecule, the LC50 (MDA-MB-435) was >1.00E−4 Molar, the TGI (MDA-MB-435) was >1.00E−4 Molar and the “Percent Growth” value (MDA-MB-435; Log10 Concentration −4.0 Molar) was 33%. The “Percent Growth” value (MDA-MB-435; Log10 Concentration −5.0 Molar) was 20%, the “Percent Growth” value (MDA-MB-435; Log10 Concentration −6.0 Molar) was 31% and the “Percent Growth” value (MDA-MB-435; Log10 Concentration −7.0 Molar) was 104%. The “Percent Growth” value (MDA-MB-435; Log10 Concentration −8.0 Molar) was 104%, the GI50 (UACC-62) was 6.41E−7 Molar and the LC50 (UACC-62) was >1.00E−4 Molar. For the same molecule, the TGI (UACC-62) was >1.00E−4 Molar, the “Percent Growth” value (UACC-62; Log10 Concentration −4.0 Molar) was 32% and the “Percent Growth” value (UACC-62; Log10 Concentration −5.0 Molar) was 27%. The “Percent Growth” value (UACC-62; Log10 Concentration −6.0 Molar) was 38%, the “Percent Growth” value (UACC-62; Log10 Concentration −7.0 Molar) was 99% and the “Percent Growth” value (UACC-62; Log10 Concentration −8.0 Molar) was 99%.
